# Measurements from US9440988B2, “Regulators of the hedgehog pathway, compositions and uses related thereto” (John Hopkins University School of Medicine, priority 1008, dated 2016).
# System: Sonic hedgehog signaling
# Assay: Clonal NIH-3T3 line with stably integrated Shh-responsive luciferase reporter (Shh-LIGHT/Shh-LIGHT2), inhibition of Sonic hedgehog induction
# Format: cell-based, mouse
# Conditions: for improvement of inhibitory activity by oxidation of the hydroxyl group to a ketone: versus the corresponding 3-hydroxyl compound (18, 20, 22, 33, 40, 50); for effect of N-alkyl modification on ability to block Shh signaling / effect of addition on inhibitory activity: SAR statement, relative to cyclopamine
# Description: FIG. 2 relates to a sensitive assay for Shh signaling in NIH-3T3 cells. (A) Purification of cholesterol- and palmitate-modified mouse Sonic hedgehog signaling domain ShhNp. Detergent-insoluble proteolipid complexes were isolated from 293 cells expressing full-length Shh (M. K. Cooper, J. A. Porter, K. E. Young, P. A. Beachy, Science 280, 1603 (1998)), and ShhNp was purified to apparent homogeneity by immunoaffinity chromatography. […] We therefore used the detergent insolubility of cholesterol-modified ShhN and affinity chromatography to purify the processed ShhN protein (ShhNp) from a human 293 cell line engineered to express the full length mouse Shh construct. Detergent-insoluble complexes (DIGs) were isolated as described by Brown and Rose (1992), with the following modifications. Cells from a 150 mm dish were lysed and collected in 2 mL of lysis solution (10 mM NaHPO4, pH 6.5, 150 mM NaCl, 0.5 mM PMSF, 1% Triton X-100, 2 μg/ml Pepstatin A, 10 μg/ml leupeptin, 5 μg/ml aprotinin, 2 μg/ml E64) at 4° C. […] Low-density, flocculent material was collected (from original position of 18.125% step), diluted 5-fold in 10 mM NaHPO4, pH 6.5, 150 mM NaCl and harvested by centrifugation at 20,000×g for 15 min (all at 4° C.). […] Mass standards migrated as indicated. […] NIH-3T3 cells cotransfected with Gli-luc reporter and TK promoter-driven Renilla luciferase control were treated with the indicated concentrations of ShhNp for 2 days. Confluent cultures of NIH-3T3 cells were plated at 1:6 dilution to 24 or 96-well plates. On the following day, the cells were transfected with renilla luciferase (pRL-TK or pRL-SV40; Clontech) or β-galactosidase transfection control (10% w/w DNA), Gli-Luc reporter (40%) and the constructs indicated (50%) using Fugene 6 (Roche) transfection reagent (250 ng (24 well plate) or 100 ng (96 well plate) DNA/well, 3:1 ratio (v/w) of reagent to DNA). […] Firefly and Renilla luciferase and β-galactosidase activities were assayed from the cell lysates by luminometry using dual luciferase (Promega) and Galacto-Light (Tropix) kits, respectively. Luciferase activities are normalized relative to control; a representative experiment is shown. […] Error bars indicate one standard deviation. […] Cultures of Shh-LIGHT (open boxes) or SmoA1-LIGHT (filled diamonds) cells were plated to 96-well plates in a series of twofold dilutions. The NIH-3T3 cell clone Shh-LIGHT and Shh-LIGHT2 stably incorporating the Gli-luc reporter and TK-renilla vectors were established by cotransfection with a vector encoding G418 resistance (pSV-Neo), followed by selection with G418 and cell cloning. Subsequently, a clonal subline of Shh-LIGHT expressing activated Smo (SmoA1-LIGHT) was established using an expression vector that allows hygromycin selection (pcDNA3.1+ hygro; Invitrogen). […] The Shh-LIGHT cells were treated with 4 nM ShhNp, and Gli-luciferase reporter activity was assayed after 24 h. Fold induction of the reporter (% of maximum is relative to equally dense Shh-LIGHT control culture) and cell densities (% of maximum Renilla luciferase activity) were measured at the end of the experiment. Error bars indicate one standard deviation (quadruplicate wells).
# Relative reporter activity is normalized to maximum. […] Error bars in A and B indicate one standard deviation.
# [1] = Mus musculus, NIH3T3, concentration for 50% inhibition of Sonic hedgehog induction, Table II
# [2] = concentration for 50% inhibition of Sonic hedgehog induction, Table II
compound,measurement,setting,value
"CC(=O)CCC(=O)N[C@@H](Cc1ccc(C(=O)c2ccccc2)cc1)C(=O)NCCN1C[C@@H](C)C[C@H]2O[C@]3(CC[C@@H]4C(=C3C)CC3[C@H]4CC=C4CC(=O)CC[C@@]43C)[C@H](C)[C@@H]21 (stereo partly drawn) [Compound 51, 3-Keto N—(N′—(N″-Levulinoyl(4-benzoylphenylalaminoyl))aminoethyl) cyclopamine]",IC50,[1],> 1000 nM
same,improvement of inhibitory activity by oxidation of the hydroxyl group to a ketone,,approximately two-fold
"CC1=C2C[C@H]3[C@@H](CCC4=CC(=O)CC[C@@]43C)[C@@H]2CC[C@]12O[C@@H]1C[C@H](C)CN(CCNC(=O)CCCCCNC(=O)CCCCC3SC[C@@H]4NC(=O)N[C@H]34)[C@H]1[C@H]2C (stereo partly drawn) [Compound 41, 3-Enone, N—(N′—(N″-Biotinoylaminocaproyl)aminoethyl)cyclopamine]",effect of enone formation (C5-C6 olefin migrated to C4-C5) on potency,,does not appear to affect compound potency
same,IC50,[1],> 100 nM
same,improvement of inhibitory activity by oxidation of the hydroxyl group to a ketone,,approximately two-fold
"CC1=C2C[C@H]3[C@@H](CC=C4CC(=O)CC[C@@]43C)[C@@H]2CC[C@]12O[C@@H]1C[C@H](C)CN(CCNC(=O)c3ccc(C(=O)c4ccccc4)cc3)[C@H]1[C@H]2C [Compound 21, 3-Keto, N—(N′-(4-benzoylbenzoyl)aminoethyl)cyclopamine]",IC50,[1],> 10 nM
same,improvement of inhibitory activity by oxidation of the hydroxyl group to a ketone,,approximately two-fold
"CC(=O)CCC(=O)N[C@@H](Cc1ccc(C(=O)c2ccccc2)cc1)C(=O)NCCN1C[C@@H](C)C[C@H]2O[C@]3(CC[C@@H]4C(=C3C)CC3[C@H]4CC=C4C[C@@H](O)CC[C@@]43C)C(C)[C@@H]21 (stereo partly drawn) [Compound 50, N—(N′—(N″-Levulinoyl(4-benzoylphenylalaminoyl))aminoethyl)cyclopamine]",IC50,[1],> 1000 nM
same,effect of N-alkyl modification on ability to block Shh signaling,,significantly abrogate biological activity
"CC1=CC(C)=[N+]2C1=Cc1ccc(CCC(=O)NCCCCCC(=O)NCCN3C[C@@H](C)C[C@H]4O[C@]5(CC[C@@H]6C(=C5C)C[C@H]5[C@H]6CC=C6C[C@@H](O)CC[C@@]65C)[C@H](C)[C@@H]43)n1[B-]2(F)F [Compound 43, N—(N′—(N″-BODIPY FL aminocaproyl)aminoethyl)cyclopamine]",effect of N-alkyl modification on ability to block Shh signaling,,do not significantly diminish
same,effect of addition on inhibitory activity,,accentuate inhibitory activity
same,IC50,[2],> 100 nM
"CCC(=O)NCCN1C[C@@H](C)C[C@H]2O[C@]3(CC[C@@H]4C(=C3C)C[C@H]3[C@H]4CC=C4C[C@@H](O)CC[C@@]43C)[C@H](C)[C@@H]21 [Compound 30, N—(N′-Propionyl aminoethyl)cyclopamine]",IC50,[1],> 100 nM
"CC1=C2C[C@H]3[C@@H](CC=C4CC(=O)CC[C@@]43C)[C@@H]2CC[C@]12O[C@@H]1C[C@H](C)CN(CCNC(=O)CCc3ccccc3)[C@H]1[C@H]2C [Compound 19, 3-Keto, N—(N′-dihydrocinnamoylaminoethyl)cyclopamine]",IC50,[1],> 10 nM
same,improvement of inhibitory activity by oxidation of the hydroxyl group to a ketone,,approximately two-fold
"CCC(=O)NCCCCCC(=O)NCCN1C[C@@H](C)C[C@H]2O[C@]3(CC[C@@H]4C(=C3C)C[C@H]3[C@H]4CC=C4C[C@@H](O)CC[C@@]43C)[C@H](C)[C@@H]21 [Compound 42, N—(N′—(N″-Propionyl aminocaproyl)aminoethyl)cyclopamine]",IC50,[1],> 100 nM
"CC1=C2C[C@H]3[C@@H](CC=C4C[C@@H](O)CC[C@@]43C)[C@@H]2CC[C@]12O[C@@H]1C[C@H](C)CN(CCNC(=O)CCc3ccccc3)[C@H]1[C@H]2C [Compound 18, N—(N′-Dihydrocinnamoyl aminoethyl)cyclopamine]",IC50,[1],> 100 nM
"CC1=C2C[C@H]3[C@@H](CC=C4C[C@@H](O)CC[C@@]43C)[C@@H]2CC[C@]12O[C@@H]1C[C@H](C)CN(CCNC(=O)CCCCCCCCCCCNC(=O)C(F)(F)F)[C@H]1[C@H]2C [Compound 29, N—(N′—(N″-Trifluoroacetyl aminododecanoyl) aminoethyl)cyclopamine]",IC50,[1],> 100 nM
same,effect of N-alkyl modification on ability to block Shh signaling,,do not significantly diminish
same,effect of addition on inhibitory activity,,accentuate inhibitory activity
"CC1=C2C[C@H]3[C@@H](CC=C4CC(=O)CC[C@@]43C)[C@@H]2CC[C@]12O[C@@H]1C[C@H](C)CN(CCNC(=O)CCCCCNC(=O)CCc3ccccc3)[C@H]1[C@H]2C [Compound 34, 3-Keto, N—(N′—(N″-dihydrocinnamoylaminocaproyl)aminoethyl)cyclopamine]",potency relative to cyclopamine,,ten-fold greater
same,IC50,"Mus musculus, NIH3T3, concentration for 50% inhibition of Sonic hedgehog induction",30 nM
same,IC50,[1],> 10 nM
same,improvement of inhibitory activity by oxidation of the hydroxyl group to a ketone,,approximately two-fold
"CC1=C2C[C@H]3[C@@H](CC=C4C[C@@H](O)CC[C@@]43C)[C@@H]2CC[C@]12O[C@@H]1C[C@H](C)CN(CCNC(=O)C(CCCCNC(=O)CCCCCNC(=O)CCCC[C@@H]3SC[C@@H]4NC(=O)N[C@@H]43)NC(=O)c3ccc(C(=O)c4ccccc4)cc3)[C@H]1[C@H]2C (stereo partly drawn) [Compound 58, N—(N′—(N″,N′″-(4-Benzoylbenzoyl)(N″″-biotinoylaminocaproyl)lysine)aminoethyl)cyclopamine]",IC50,[1],> 10000 nM
"CC1=C2C(=O)[C@H]3[C@@H](CC=C4C[C@@H](OC(=O)NCCNC(=O)CCc5ccccc5)CC[C@@]43C)[C@@H]2CC[C@]12O[C@@H]1C[C@H](C)CN[C@H]1[C@H]2C [Compound 12, 3O-dihydrocinnamoylethylenediaminecarbamoyl jervine]",IC50 relative to cyclopamine (times higher),,~100 times
same,potency relative to cycloposine (3) (times weaker),,10 times
same,IC50,[1],> 10000 nM
"N—(N′—(N″,N′″-(4-Benzoylbenzoyl) (N″″-digoxigenin 3-O-methylcarbonyl aminocaproyl)lysine)aminoethyl)cyclopamine [Compound 57]",IC50,[2],> 10000 nM
"CC1=C2C[C@H]3[C@@H](CC=C4C[C@@H](O)CC[C@@]43C)[C@@H]2CC[C@]12O[C@@H]1C[C@H](C)CN(CCNC(=O)CCCCCNC(=O)CCc3ccccc3)[C@H]1[C@H]2C [Compound 33, N—(N′—(N″-Dihydrocinnamoyl aminocaproyl)aminoethyl)cyclopamine]",effect of N-alkyl modification on ability to block Shh signaling,,do not significantly diminish
same,effect of addition on inhibitory activity,,accentuate inhibitory activity
same,IC50,[2],> 10 nM
N—(N′—(N″-Azidoiodophenylpropionyl aminocaproyl)aminoethyl)cyclopamine [Compound 39],effect of N-alkyl modification on ability to block Shh signaling,,do not significantly diminish
same,effect of addition on inhibitory activity,,accentuate inhibitory activity
same,IC50,[2],> 100 nM
"CC1=C2C[C@H]3[C@@H](CC=C4C[C@@H](O)CC[C@@]43C)[C@@H]2CC[C@]12O[C@@H]1C[C@H](C)CN(CCNC(=O)CCCCCNC(=O)CCCCC3SC[C@@H]4NC(=O)N[C@H]34)[C@H]1[C@H]2C (stereo partly drawn) [Compound 40, N—(N′—(N″-Biotinoyl aminocaproyl)aminoethyl)cyclopamine]",IC50,[1],> 100 nM
same,effect of N-alkyl modification on ability to block Shh signaling,,do not significantly diminish
"CC1=C2C[C@H]3[C@@H](CC=C4C[C@@H](OC(=O)NCCNC(=O)CCc5ccccc5)CC[C@@]43C)[C@@H]2CC[C@]12O[C@@H]1C[C@H](C)CN[C@H]1[C@H]2C [Compound 8, 3O-dihydrocinnamoylethylenediaminecarbamoyl cyclopamine]",IC50 relative to cyclopamine (times higher),,~100 times
same,potency relative to cycloposine (3) (times weaker),,10 times
